Experiments:
LOX IMVI = experiment: NCI DTP 60 cell line five-concentration test, melanoma panel; assay type: cell-based; settings: for LC50 (50% lethal concentration) / GI50: Homo sapiens; for LC50 (50% lethal concentration): LOX IMVI, read-out: LC50 (50% lethal concentration); for GI50 / TGI (total growth inhibition): LOX IMVI melanoma cell line
Description: (§1) In our effort to develop new methodologies to synthesize bioactive compounds [11–14], we have synthesized a number of thiazole and thiazolo-androstenone derivatives. We submitted 50 of the synthesized thiazole–androstenone derivatives to the National Cancer Institute (NCI) Development Therapeutics Program (DTP) to test against 60 cancer cell lines (https://dtp.cancer.gov/). These compounds were tested for cytotoxicity at a single dose of 10 µM. […] Eight of these chimeric compounds (figure 2) were selected for further testing at five different concentrations to determine 50% growth inhibition (GI50), total growth inhibition (TGI) and 50% lethal concentration (LC50) values. […] Overall, amino-thiazole derivatives (table 1, 1–7) were more toxic to melanoma cell lines than phenyl thiazole derivatives (8). Fluoro and oxy (hydroxy and methoxy) derivatives were the potent growth inhibitors of the tested cancer cell lines. LOX IMVI cell line was the most susceptible among all the melanoma cell lines used against the tested compounds (table 1). […] Phenyl ethyl derivative (1) inhibited the growth of all the cell lines except SK-MEL-2. […] 2,4-Dimethyl substituted derivative (7) is a potent growth inhibitor of all the tested cell lines of the melanoma panel.

M14 = experiment: as above; assay type: cell-based; settings: for GI50 / CC50: Homo sapiens; for GI50: M14, M14 melanoma cell line; for CC50: M14, read-out: LC50 (50% lethal concentration); for TGI (total growth inhibition): M14 melanoma cell line
Description: as §1

MALME-3M = experiment: as above; assay type: cell-based; settings: for CC50 / GI50: Homo sapiens; for CC50: Malme-3M, read-out: LC50 (50% lethal concentration); for GI50 / TGI (total growth inhibition): MALME-3M melanoma cell line
Description: as §1

MDA-MB-435 = experiment: as above; assay type: cell-based; settings: for CC50 / GI50: Homo sapiens; for CC50: MDA-MB-435, read-out: LC50 (50% lethal concentration); for GI50 / TGI (total growth inhibition): MDA-MB-435 melanoma cell line
Description: as §1

SK-MEL-28 = experiment: as above; assay type: cell-based; settings: for GI50 / CC50: Homo sapiens; for GI50: SK-MEL-28, SK-MEL-28 melanoma cell line; for CC50: SK-MEL-28, read-out: LC50 (50% lethal concentration); for TGI (total growth inhibition): SK-MEL-28 melanoma cell line
Description: as §1

SK-MEL-2 = experiment: as above; assay type: cell-based; settings: for LC50 (50% lethal concentration) / GI50: Homo sapiens; for LC50 (50% lethal concentration): SK-MEL-2, read-out: LC50 (50% lethal concentration); for GI50 / TGI (total growth inhibition): SK-MEL-2 melanoma cell line
Description: as §1

SK-MEL-5 = experiment: as above; assay type: cell-based; settings: for CC50 / GI50: Homo sapiens; for CC50: SK-MEL-5, read-out: LC50 (50% lethal concentration); for GI50 / TGI (total growth inhibition): SK-MEL-5 melanoma cell line
Description: as §1

UACC-257 = experiment: as above; assay type: cell-based; settings: for CC50 / GI50: Homo sapiens; for CC50: UACC-257, read-out: LC50 (50% lethal concentration); for GI50 / TGI (total growth inhibition): UACC-257 melanoma cell line
Description: as §1

UACC-62 = experiment: as above; assay type: cell-based; settings: for GI50 / LC50 (50% lethal concentration): Homo sapiens; for GI50: UACC-62, UACC-62 melanoma cell line; for LC50 (50% lethal concentration): UACC-62, read-out: LC50 (50% lethal concentration); for TGI (total growth inhibition): UACC-62 melanoma cell line
Description: as §1

[1] = Solubility in the growth media; assay type: physicochemical; settings: growth media of the HFF-1 test
melanoma panel = experiment: NCI DTP test, statements for the whole melanoma panel; assay type: cell-based
Description: as §1

HFF-1 cell line = experiment: Toxicity for normal human foreskin fibroblast cell line; assay type: cell-based; settings: normal human foreskin fibroblast HFF-1
Source text: To assess the potential use of lead compounds as anti-melanoma agents, we tested their toxicity for the normal human foreskin fibroblast (HFF-1) cell line taking into consideration that MM is usually surrounded by the cells of this kind. The effects of some of the potent compounds on this cell line were very encouraging (table 4).

SK-MEL-28 cell line = experiment: Annexin V flow cytometry apoptosis assay; assay type: cell-based; settings: SK-MEL-28, 200 µM
Description: After determining the selective toxicity of potent molecules, we determined their mode of action against the melanoma cell line. Apoptosis or programmed cell death is a physiological process to remove unwanted or damaged mammalian cells. We detected apoptosis mode of cell death by our potent compounds using flow cytometry-based Annexin V assay. Compound 3 caused 23% apoptosis at 6 µM and 54% apoptosis at 12 µM (figure 3). 3-Fluorophenyl derivative (5) was a very potent apoptosis-inducing agent that caused 100% cell death at 12 µM concentration. Dacarbazine, the positive control, caused 22% apoptotic cell death at 200 µM concentration.
Figure 3. Apoptosis measurements using Annexin V flow cytometry assay of compounds 3 and 5 against SK-MEL-28 cell line at 6 and 12 µM concentrations. DMSO and dacarbazine (Daca) are negative and positive controls, respectively. Mean ± s.e.m., n = 3 per group.

melanoma cells = experiment: TUNEL staining for DNA fragmentation and irreversible cell death; settings: 5 or 10 µM, 24 h
Source text: Apoptosis is usually associated with profound DNA fragmentation that makes the cell death irreversible. DNA fragmentation could be due to the increasing of nuclear DNA access to apoptotic endonucleases and the induction of these enzymes. This DNA fragmentation is best measured by using the terminal deoxynucleotidyl transferase dUTP nick-end labelling (TUNEL) assay. […] Immunostaining for major marker of oxidative injury, heme oxygenase-1 (HO1) was done to determine whether the test compounds induce oxidative injury. […] Activation of endonucleases and their translocation to the nucleus is actually the last step when cell death becomes irreversible. It is often preceded by an oxidative cell injury that activates or aggravates the cell death mechanism. To measure whether our compounds induce oxidative injury, we chose to measure HO1 which is a well-established mechanistic marker of oxidative injury. Because HO1 is not a nuclear marker and it is not translocated to the nucleus and contact DNA during cell death, instead of colocalization by pixels, we counted the percentage of TUNEL-positive (dead) cells which are also HO1-positive (figure 5a). […] We next examined whether caspase-activated DNase (CAD), a known mechanistic marker of caspase-mediated apoptosis, is colocalized with TUNEL during cell death induced by dacarbazine or our test compounds (3, 4 and 5).
Figure 4. […]

heme oxygenase-1 (HO1) = experiment: HO1 immunocytochemistry combined with TUNEL (oxidative injury); assay type: cell-based; settings: melanoma cells, 5 or 10 µM, 24 h
Source text: (§2) The elevation was dose-dependent.
(§3) Figure 4. […] (c) Representative images. […] Mean ± s.e.m., n = 4 per group.
(§4) Figure 5. […] (a) Representative images of TUNEL colocalized or not colocalized with each of the three protein markers used in this study. […] Mean ± s.e.m., n = 4 per group.
(§5) Thus, to determine the mechanism of action of our compounds on melanoma cells in vitro, we applied the fluorescent TUNEL assay combined with quantitative ICC for three markers: HO1 for oxidative cell injury, CAD for caspase-mediated apoptosis and EndoG for caspase-independent apoptosis. […] However, none of the compounds or dacarbazine induced apoptotic endonucleases. This is not surprising because apoptotic endonucleases are commonly present in the cell in sufficient amounts to be able to destroy DNA upon cell death without induction (which most likely would not be possible in a dead cell).

[2] = tested on: caspase-activated DNase (CAD); experiment: CAD immunocytochemistry combined with TUNEL (caspase-mediated apoptosis); assay type: cell-based; settings: melanoma cells, 5 or 10 µM, 24 h
Source text: as §2, §3, §4, §5

endonuclease G (EndoG) = experiment: EndoG immunocytochemistry combined with TUNEL (caspase-independent apoptosis); assay type: cell-based; settings: melanoma cells, 24 h
Source text: as §2, §3, §4, §5

Compound	LC50 (50% lethal concentration) (LOX IMVI)	GI50 (LOX IMVI)	TGI (total growth inhibition) (LOX IMVI)	GI50 (M14)	CC50 (M14)	TGI (total growth inhibition) (M14)	CC50 (MALME-3M)	GI50 (MALME-3M)	TGI (total growth inhibition) (MALME-3M)	CC50 (MDA-MB-435)	GI50 (MDA-MB-435)	TGI (total growth inhibition) (MDA-MB-435)	GI50 (SK-MEL-28)	CC50 (SK-MEL-28)	TGI (total growth inhibition) (SK-MEL-28)	LC50 (50% lethal concentration) (SK-MEL-2)	GI50 (SK-MEL-2)	GI50 (SK-MEL-5)	GI50 (UACC-257)	GI50 (UACC-62)	further results
C[C@]12CCc3nc(NCCc4ccccc4)sc3C1=CC[C@@H]1[C@@H]2CC[C@]2(C)C(=O)CC[C@@H]12 [Compound 1]	5.91 µM	1700 nM	3.17 µM	3.63 µM	> 100 µM	>100 µM	> 100 µM	2180 nM	6.82 µM	> 100 µM	3.01 µM	>100 µM	3.37 µM	> 100 µM	18.9 µM	> 100 µM	17 µM	4.57 µM	4.92 µM	2670 nM	TGI (total growth inhibition) (SK-MEL-2): >100 µM; CC50 (SK-MEL-5): > 100 µM; TGI (total growth inhibition) (SK-MEL-5): 52.7 µM; CC50 (UACC-257): > 100 µM; TGI (total growth inhibition) (UACC-257): 79.8 µM; LC50 (50% lethal concentration) (UACC-62): > 100 µM; TGI (total growth inhibition) (UACC-62): 10.6 µM; solubility in the growth media [1]: low solubility
C[C@]12CCc3nc(Nc4ccc(F)cc4F)sc3C1=CC[C@@H]1[C@@H]2CC[C@]2(C)C(=O)CC[C@@H]12 [Compound 6]		1710 nM		> 100 µM				> 100000 nM			> 100 µM		> 100 µM				> 100 µM	1.88 µM	> 100 µM	> 100000 nM	TGI values against the cell lines of the melanoma panel (melanoma panel): did not show any useful TGI values
C[C@]12CCc3nc(-c4cccc(F)c4)sc3C1=CC[C@@H]1[C@@H]2CC[C@]2(C)C(=O)CC[C@@H]12 [Compound 8]	6.47 µM	1740 nM	3.36 µM	6.62 µM	> 100 µM	>100 µM	9.48 µM	1800 nM	4.13 µM	> 100 µM	2.97 µM	>100 µM	1.53 µM	> 100 µM	4.07 µM	> 100 µM	2.74 µM	4.05 µM	6.12 µM	1900 nM	TGI (total growth inhibition) (SK-MEL-2): 10.7 µM; CC50 (SK-MEL-5): 65.1 µM; TGI (total growth inhibition) (SK-MEL-5): 16.9 µM; CC50 (UACC-257): > 100 µM; TGI (total growth inhibition) (UACC-257): >100 µM; LC50 (50% lethal concentration) (UACC-62): 37.3 µM; TGI (total growth inhibition) (UACC-62): 5.70 µM; solubility in the growth media [1]: low solubility
CN(C)/N=N/c1[nH]cnc1C(N)=O [dacarbazine, reference compound]																					toxicity against HFF1 cells (in words) (HFF-1 cell line): did not show any notable toxicity; IC50 (HFF-1 cell line; read-out: IC50 against HFF1 cell line): > 100 µM; apoptotic cell death (SK-MEL-28 cell line): 22%; cytotoxicity by TUNEL staining (TUNEL-positivity) (melanoma cells): negligent; HO1 staining in TUNEL-positive cells (oxidative injury) (heme oxygenase-1 (HO1)): without induction of HO1; CAD mean intensity [2]: No significant induction; colocalization of CAD with TUNEL (caspase-mediated apoptosis) [2]: did not induce any association of CAD with TUNEL; EndoG overlap with TUNEL staining (caspase-independent apoptosis) (endonuclease G (EndoG); 5 µM): did not show any effect; EndoG overlap with TUNEL staining (caspase-independent apoptosis) (endonuclease G (EndoG); 10 µM): significant increase; EndoG mean intensity (endonuclease G (EndoG); 5 or 10 µM): No significant induction

Reference: paper PMC8355692, “Antimelanoma activities of chimeric thiazole–androstenone derivatives” (Royal Society Open Science, 2021)
